Where two headings read alike, the source gives them in different places. Where a SMILES comes first, the peptide text is derived from it. The star is where a group is joined. Biotin = O=C1N[C@H]2[C@H](CS[C@H]2CCCCC(=O)*)N1; Ahx = NCCCCCC(=O)O
Assays:
[1] = molecular target: H23; assay: Caspase-3/7 activation assay; format: cell-based; settings: for EC50: caspase activation, Mcl-1-dependent cell line, read-out: NCI-H23, EC50; for NCI-H23 caspase pEC50: mean of log transformed data
Protocol: (§4) Cells were plated at 3000 cells/well in 384-well white plates in corresponding cell growth media. […] Caspase-3/7 activation was subsequently determined using a Caspase-Glo 3/7 Reagent (Promega) and viability was assayed using the CellTiter-Glo Reagent (Promega) as described in manufacturer’s instructions. Dose–response curves for caspase-3/7 activation and viability were plotted and analyzed (including EC50 and GI50 determination) using GraphPad Prism.

[2] = molecular target: MV411; assay: Caspase-3/7 activation assay; format: cell-based
Protocol: as §4

[3] = molecular target: MOLP8; assay: Caspase-3/7 activation assay; format: cell-based
Protocol: as §4

[4] = molecular target: T1, Bcl-w (Homo sapiens, UniProt Q92843); assay: TR-FRET binding assay; settings: binding to Bcl-w, used in Ki calculations; read-out: Peptide, Kd
T1 construct: N-Terminal 6His-tagged Bcl-w protein from Bcl-w (M1-R171); made in house; host or cells: E. coli
T1 sequence (Q92843 1-171): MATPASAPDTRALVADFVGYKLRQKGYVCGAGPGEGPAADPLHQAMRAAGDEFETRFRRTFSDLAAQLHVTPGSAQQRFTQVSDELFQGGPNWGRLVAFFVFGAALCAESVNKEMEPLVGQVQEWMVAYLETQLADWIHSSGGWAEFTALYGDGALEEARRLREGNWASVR
Description: (§1) N-terminal GST-tagged-Mcl-1 protein from Mcl-1 (E171-G327), N-terminal GST-tagged Bcl-xL protein from Bcl-xL (1-209), N-Terminal 6His-tagged Bfl-1 protein from Bfl-1 (M1-K151), N-Terminal 6His-tagged Bcl-w protein from Bcl-w (M1-R171), and C-Terminal 6His-tagged Bcl-2 protein from Bcl-2 (M1-F212) were expressed as a tagged fusion protein in E. coli and subsequently purified via Glutathione Sepharose-affinity or Ni-NTA resin purification, and size-exclusion chromatography.
(§2) For TR-FRET, tagged fusion proteins were incubated with a Europium-labeled antibody and a HyLite Fluor 647-labeled peptide, or a biotin-labeled peptide with a streptavidin-labeled ulight fluorophore allowing the assembly of donor and acceptor dye pairs for use in protein-binding assays.
(§3) The reaction final concentrations for Mcl-1 were 1.5 nM GST-Mcl-1, 0.5 nM LanthaScreen Eu tagged GST antibody (LifeTechnologies cat#PV5594), and 4 nM HyLite Fluor 647-labeled Bim peptide C (Hilyte647 C2 Maleimide)-[…]; for Bcl-xl were 2 nM GST-Bcl-xl, 2 nM LanthaScreen Eu-tagged GST antibody, and 10 nM HyLite Fluor 647-labeled BAK peptide C(Hilyte647 C2 Maleimide)-[…]; for Bfl-1 were 4 nM His-Bfl-1, 0.5 nM LanthaScreen Eu-tagged HIS antibody (PerkinElmer cat#AD0205), and 10 nM HyLite Fluor 647-labeled BIM peptide C(Hilyte647-C2-Maleimide)-[…]; for Bcl-2 and Bcl-w: 2 nM His-Bcl-2, or 2 nM His-Bcl-w, with 0.5 nM LanthaScreen Eu-tagged HIS antibody, 10 nM biotin-labeled Bim peptide (Biotin-lc-[…]), and 2.4 nM a streptavidin labeled ULight Fluorophore (PerkinElmer cat#TRF0102-D). Reactions were incubated at 24 °C for 120–180 min before reading on a Tecan (InfiniteM1000 spectrofluorometer) with excitation at 340 nm and emission at […] and 665 nm. Ratio of fluorescent emission intensity at 665–620 nm was calculated for each reaction (equation 1). Percent inhibition was calculated based upon min (control compound) vs. max (DMSO) according to Eq. (2) and the IC50 was derived the smart fit curve (Genedata screener) of % inhibition vs. concentration. Ki values were calculated from Eq. […]

[5] = molecular target: T2, Bcl-2 (Homo sapiens, UniProt P10415); assay: TR-FRET binding assay; settings: binding to Bcl-2, used in Ki calculations; read-out: Peptide, Kd
T2 construct: C-Terminal 6His-tagged Bcl-2 protein from Bcl-2 (M1-F212); made in house; host or cells: E. coli
T2 sequence (P10415 1-212): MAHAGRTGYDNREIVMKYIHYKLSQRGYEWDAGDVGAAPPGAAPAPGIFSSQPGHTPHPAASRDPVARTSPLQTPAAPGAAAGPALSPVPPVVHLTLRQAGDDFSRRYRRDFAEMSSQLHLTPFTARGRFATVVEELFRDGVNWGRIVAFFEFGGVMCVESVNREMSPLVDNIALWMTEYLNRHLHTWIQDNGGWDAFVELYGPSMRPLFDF
Description: as §1, §2, §3

[6] = molecular target: T3, Mcl-1 (Homo sapiens, UniProt Q07820); assay: SPR direct binding assay; design: 6His-tagged Mcl-1 protein (E171-G327) was immobilized using NTA capture-coupling
T3 sequence (Q07820 171-327): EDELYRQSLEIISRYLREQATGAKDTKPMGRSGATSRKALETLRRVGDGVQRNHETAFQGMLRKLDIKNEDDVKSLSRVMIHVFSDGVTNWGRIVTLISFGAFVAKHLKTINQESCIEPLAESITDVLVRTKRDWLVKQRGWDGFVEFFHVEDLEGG
Protocol: A Biacore T200 instrument (GE Healthcare) was used to monitor binding interactions using a direct binding assay format. 6His-tagged Mcl-1 protein (E171-G327) was immobilized using NTA capture-coupling at a flow rate of 10 μL min^-1 and using an immobilization running buffer containing 10 mM HEPES, 300 mM NaCl, 1 mM TCEP, and 0.05% Tween-20 at 25 °C. […] Approximately 300 response units of Mcl-1 protein (2 μg mL^-1 in immobilization running buffer) were immobilized using the ‘aim for’ function in the T200 Control Software (GE Healthcare). Remaining reactive esters were blocked using a 7 min injection of 1 M ethanolamine. Reference flow cells were prepared without protein. All binding measurements were performed in 10 mM Tris, pH 7.5, 300 mM NaCl, 1 mM TCEP, 1% DMSO, and 0.02% Tween-20 at 25 °C at a flow rate of 30 μL min^-1. Buffer was primed through the instrument overnight to stabilize the surface before subsequent assay steps. Prior to kinetic analysis, solvent calibration and double referencing subtractions were made to eliminate bulk refractive index changes, injection noise, and data drift. Affinity and binding kinetic parameters were determined by global fitting to a 1:1-binding model within the Biacore T200 Evaluation Software (GE Healthcare).

[7] = molecular target: T3, Mcl-1; assay: TR-FRET binding assay; design: N-terminal GST-tagged-Mcl-1 protein from Mcl-1 (E171-G327); made in house; host or cells: E. coli
Protocol: Percent inhibition was calculated based upon min (control compound) vs. max (DMSO) according to Eq. (2) and the IC50 was derived the smart fit curve (Genedata screener) of % inhibition vs. concentration. Ki values were calculated from Eq.

[8] = system: OCIM1; assay: Caspase-3/7 activation assay; format: cell-based; settings: OCI-M1, 6 h, read-out: 6h caspase EC50; OCIM1, single agent
Protocol: as §4

[9] = system: ME1; assay: Caspase-3/7 activation assay; format: cell-based; settings: ME-1, 6 h, read-out: 6h caspase EC50; ME1, single agent
Protocol: as §4

[10] = system: NB4; assay: Caspase-3/7 activation assay; format: cell-based; settings: Homo sapiens, NB-4, 6 h, read-out: 6h caspase EC50; NB4, single agent
Protocol: as §4

[11] = system: OCIAML5; assay: Caspase-3/7 activation assay; format: cell-based; settings: Homo sapiens, OCI-AML-5, 6 h, read-out: 6h caspase EC50; OCIAML5, single agent
Protocol: as §4

[12] = system: CMK; assay: Caspase-3/7 activation assay; format: cell-based; settings: Homo sapiens, 6 h, read-out: 6h caspase EC50; CMK, single agent
Protocol: as §4

[13] = system: KG1; assay: Caspase-3/7 activation assay; format: cell-based; settings: Homo sapiens, KG-1, 6 h, read-out: 6h caspase EC50; KG1, single agent
Protocol: as §4

[14] = system: MOLM13; assay: Caspase-3/7 activation assay; format: cell-based; settings: Homo sapiens, MOLM-13, 6 h, read-out: 6h caspase EC50; MOLM13, single agent
Protocol: as §4

[15] = system: HEL92.1.7; assay: Caspase-3/7 activation assay; format: cell-based; settings: Homo sapiens, HEL 92.1.7, 6 h, read-out: 6h caspase EC50; HEL9217, single agent
Protocol: as §4

[16] = system: Nomo1; assay: Caspase-3/7 activation assay; format: cell-based; settings: Homo sapiens, NOMO-1, 6 h, read-out: 6h caspase EC50; NOMO1, single agent
Protocol: as §4

[17] = system: OCIAML3; assay: Caspase-3/7 activation assay; format: cell-based; settings: Homo sapiens, OCI-AML-3, 6 h, read-out: 6h caspase EC50; OCIAML3, single agent
Protocol: as §4

[18] = system: MOLM-13 leukemic cells; assay: MOLM-13 disseminated AML model; format: in vivo, mice; settings: venetoclax 100 mg kg^−1 p.o. daily, AZD5991 60 mg kg^−1 i.v. weekly, after 10 days
Description: MOLM-13: These studies complied with all relevant ethical regulations described in the guidelines established by GV-SOLAS Institutional Animal Care and Use Committee. Female CIEA-NOG mice were purchased from Taconic. Mice between 5 and 8 weeks old were tail vein injected with five million MOLM-13 cells. Treatment started 3 days after implantation. AZD5991, venetoclax, and vehicle were formulated and administered as mentioned above. Bone marrow and peripheral blood were collected 10 days post-treatment initiation, followed by red cell lysis (ACK lysis buffer), washes with FC buffer (PBS + 2% FCS) and cell staining with AquaZombie live/dead stain (cat#423102, Biolegend) containing antibodies against human CD45 (cat#564105, BDBiosciences) and human HLA-ABC (cat#561346, BDBiosciences) or isotype controls (mIgG1 cat#552834, BDBiosciences; mIgG1 cat#561504, BDBiosciences). Samples were washed with FC buffer and data acquired on an Attune NXT cytometer and analyzed using FlowJo software. Gating was performed on single/live/FCS vs. SSC/HLA-ABC vs. hCD45 double positive cells (Supplementary Figure 8).

[19] = caspase activation, Mcl-1-dependent cell line, read-out: MV4-11, EC50
[20] = caspase activation, Mcl-1-dependent cell line, read-out: MOLP-8, EC50

| SMILES | EC50 [1] [µM] | NCI-H23 caspase pEC50 [1] | EC50 [2, 19] [nM] | MV4-11 caspase pEC50 ([2]; mean of log transformed data) | EC50 [3, 20] [µM] | MOLP-8 caspase pEC50 ([3]; mean of log transformed data) | Kd ([6]; read-out: Mcl-1 SPR, Kd) [nM] | IC50 ([7]; read-out: Mcl-1 FRET, IC50) [nM] | also measured |
| --- | --- | --- | --- | --- | --- | --- | --- | --- | --- |
| Cc1c2c(nn1C)CSCc1cc(n(C)n1)CSc1cc(c3ccccc3c1)OCCCc1c(C(=O)O)n(C)c3c-2c(Cl)ccc13 (atropisomer, axis not shown; (Sa)) [(Sa)-7] | > 25 | < 4.6 | > 16000 | < 4.8 | > 16 | < 4.8 |  |  |  |
| CC[C@H](C)[C@H](NC(=O)[C@H](CCCNC(=N)N)NC(=O)[C@H](CCCNC(=N)N)NC(=O)[C@H](CC(C)C)NC(=O)[C@H](CCC(=O)O)NC(=O)[C@H](CC(N)=O)NC(=O)[C@H](C)NC(=O)[C@@H](NC(=O)[C@H](Cc1c[nH]c2ccccc12)NC(=O)[C@@H](NC(=O)[C@H](CCC(=O)O)NC(=O)[C@@H]1CCCN1C(=O)[C@H](CCCNC(=N)N)NC(=O)[C@H](CCSC)NC(=O)CNC(=O)CNC(=O)CCCCCNC(=O)CCCC[C@@H]1SC[C@@H]2NC(=O)N[C@@H]21)[C@@H](C)CC)[C@@H](C)CC)C(=O)NCC(=O)N[C@@H](CC(=O)O)C(=O)N[C@@H](CCC(=O)O)C(=O)N[C@@H](Cc1ccccc1)C(=O)N[C@@H](CC(N)=O)C(=O)N[C@@H](C)C(=O)O [Biotin Bim peptide(biotin-Ic-), reference compound] ({Biotin-Ahx}-GGMRPEIWIANELRRIGDEFNA-OH) |  |  |  |  |  |  |  |  | Kd [4]: 10 nM; Kd [5]: 5 nM |
| Cc1c2c(nn1C)CSCc1cc(n(C)n1)CSc1cc(c3ccccc3c1)OCCCc1c(C(=O)O)[nH]c3c-2cccc13 [Compound 5] |  |  |  |  |  |  | 47 | 19 | Kd ([6]; mean of log transformed data, read-out: MCL1 SPR pKd (converted)): 46.8 nM; EC50 ([2]; Homo sapiens, MV4-11, caspase activation, Mcl-1-dependent cell line, read-out: MV4-11, EC50): > 31500 nM; EC50 ([2]; Homo sapiens, MV4-11, mean of log transformed data, read-out: MV4-11 caspase pEC50 (converted)): > 31600 nM; EC50 ([3]; Homo sapiens, MOLP-8, caspase activation, Mcl-1-dependent cell line, read-out: MOLP-8, EC50): > 31.5 µM; EC50 ([3]; Homo sapiens, MOLP-8, mean of log transformed data, read-out: MOLP-8 caspase pEC50 (converted)): > 31.6 µM; IC50 ([7]; mean of log transformed data, read-out: MCL1 FRET pIC50 (converted)): 19.1 nM |
| Cc1c2c(nn1C)CSCc1cc(n(C)n1)CSc1cc(c3ccccc3c1)OCCCc1c(C(=O)O)n(C)c3c-2cccc13 [Compound 6] | 5.75 | 5.24 | 1050 | 5.98 | 0.66 | 6.18 | 8 | 4 | MCL1 SPR pKd ([6]; mean of log transformed data): 8.10; MCL1 FRET pIC50 ([7]; mean of log transformed data): 8.37 |
| Cc1ccccc1-c1cccc2c(CCCOc3cccc4c3CCCC4)c(C(=O)O)[nH]c12 [Compound 1, reference compound] |  |  |  |  |  |  |  | 1100 |  |
| Cc1nn(C)c(COc2ccc(N3CCN(S(=O)(=O)N(C)C)CC3)cc2)c1-c1cccc2c(CCCOc3cccc4ccccc34)c(C(=O)O)n(CCN3CCOCC3)c12 [Compound 8, A-1210477, reference compound] | 20.9 | 4.68 | 1860 | 5.73 | 3.55 | 5.45 | 11 | 6 | MCL1 SPR pKd ([6]; mean of log transformed data): 7.94; MCL1 FRET pIC50 ([7]; mean of log transformed data): 8.20 |
| CC1(C)CCC(CN2CCN(c3ccc(C(=O)NS(=O)(=O)c4ccc(NCC5CCOCC5)c([N+](=O)[O-])c4)c(Oc4cnc5[nH]ccc5c4)c3)CC2)=C(c2ccc(Cl)cc2)C1 [venetoclax, reference compound] |  |  |  |  |  |  |  |  | EC50 [8]: > 333 nM; EC50 ([2]; Homo sapiens, MV4-11, 6 h, read-out: 6h caspase EC50, MV411, single agent): 45.2 nM; EC50 [9]: 10.2 nM; EC50 [10]: 27.5 nM; EC50 [11]: 73 nM; EC50 [12]: > 333 nM; EC50 [13]: 269 nM; EC50 [14]: 9.66 nM; EC50 [15]: > 333 nM; EC50 [16]: > 333 nM; EC50 [17]: > 333 nM; percentage of HLA-ABC+ hCD45+ leukemic cells in peripheral blood vs. vehicle [18]: significantly reduced |
| Cc1c(-c2cccc3c(CCCOc4cccc5ccccc45)c(C(=O)O)[nH]c23)c(CSCc2nn(C)c(C)c2-c2cccc3c(CCCOc4cccc5ccccc45)c(C(=O)O)[nH]c23)nn1C [Compound 3] |  |  |  |  |  |  |  | 770 |  |
